Data: patent publication US3965109A, “Certain aryl amino pyridines” (priority 1971, dated 1976)

Tests used:
Oat = assay: Further herbicidal test, various rates; format: in vivo; conditions: scale 0 to 5 (complete kill)
[1] = test system: Aedes aegypti (mosquito adults); assay: Pest toxicity test; format: in vivo; conditions: 0.01% by weight; plywood; 1 day
[2] = test system: Plutella maculipennis (diamond back moth larvae); assay: Pest toxicity test; format: in vivo
Kale = assay: Further herbicidal test, various rates; format: in vivo; conditions: scale 0 to 5 (complete kill)
[3] = test system: Aedes aegypti (mosquito larvae); assay: Pest toxicity test; format: in vivo; conditions: 0.01% by weight; water; 1 day
[4] = test system: Tetranychus telarius (red spider mites, eggs); assay: Pest toxicity test; format: in vivo; conditions: 0.1% by weight; French bean; 3 days
Aphis fabae = assay: Pest toxicity test; format: in vivo; conditions: 0.1% by weight; broad bean; 2 days
Lettuce = assay: Herbicidal test, pre- and post-emergence; format: in vivo; conditions: 10 kg/ha; scale 0 to 3 (complete kill)
[5] = test system: Phaedon cochleariae (mustard beetles); assay: Pest toxicity test; format: in vivo
Tomato = assay: Herbicidal test, pre- and post-emergence; format: in vivo; conditions: 10 kg/ha; scale 0 to 3 (complete kill)
[6] = test system: Pieris brassicae (cabbage white caterpillars); assay: Pest toxicity test; format: in vivo; conditions: 0.1% by weight, 2 days
Wheat = assay: Herbicidal test, pre- and post-emergence; format: in vivo; conditions: 10 kg/ha; scale 0 to 3 (complete kill)
Maize = assay: Herbicidal test, pre- and post-emergence; format: in vivo; conditions: 10 kg/ha; scale 0 to 3 (complete kill)
Barley = assay: Further herbicidal test, various rates; format: in vivo; conditions: scale 0 to 5 (complete kill)
[7] = test system: Plasmopara viticola (vine); assay: Fungicidal test against foliar disease C (foliage spray plus soil drench); format: in vivo; conditions: 100 ppm spray and drench; 10 days
Onion = assay: Further herbicidal test, various rates; format: in vivo; conditions: scale 0 to 5 (complete kill)
Carrot = assay: Further herbicidal test, various rates; format: in vivo; conditions: scale 0 to 5 (complete kill)
Uncinula necator (vine) = assay: Fungicidal test against foliar disease D (foliage spray plus soil drench); format: in vivo; conditions: 100 ppm spray and drench; 10 days
Rice = assay: Further herbicidal test, various rates; format: in vivo; conditions: scale 0 to 5 (complete kill)
Pea = assay: Further herbicidal test, various rates; format: in vivo; conditions: scale 0 to 5 (complete kill)
[8] = test system: Puccinia recondita (wheat); assay: Fungicidal test against foliar disease A (foliage spray plus soil drench); format: in vivo; conditions: 100 ppm spray and drench; 10 days
Megoura viceae = assay: Pest toxicity test; format: in vivo; conditions: 0.1% by weight; broad bean; 2 days
[9] = test system: Tetranychus telarius (red spider mites, adults); assay: Pest toxicity test; format: in vivo; conditions: 0.1% by weight; French bean; 3 days
Sugar beet = assay: Further herbicidal test, various rates; format: in vivo; conditions: scale 0 to 5 (complete kill)
[10] = test system: Agriolimax reticulatus (slugs); assay: Molluscicidal activity test; format: in vivo, Agriolimax reticulatus (Mull); conditions: pellet with 4% by weight; 6 days; 10°C
Procedure: A weighed sample of the compound under test was dissolved in 0.5 c.c. of an ethanol and acetone mixture 50:50 v/v). The solution was diluted with 0.5 cc water and poured onto a calf feeding pellet in a glass Petri dish. The pellet was then air dried for 24 hours. The weight of compound used was chosen so that the dried pellet contained 4% by weight of the active ingredient. Two replicates each consisting of a plastic Petri dish containing a pellet, 2 slugs, and a moistened filter paper to maintain a high relative humidity were used in each test. The dishes were left in a cold room (10°C.) After 6 days the kill was assessed.
The slugs used were Agriolimax reticulatus (Mull), and they had been starved for 24 hours before the commencement of the tests.

[11] = test system: Musca domestica (houseflies); assay: Pest toxicity test, contact test; format: in vivo; conditions: 0.1% by weight; milk/sugar; 2 days; flies sprayed directly
[12] = 0.1% by weight, mustard/paper, 2 days

For O=[N+]([O-])c1ccc(Nc2c(F)c(F)nc(F)c2Cl)c(C(F)(F)F)c1 [Compound 32, 3-Chloro-4(4-nitro-2-trifluoromethylanilino)-2,5,6-trifluoropyridine], the “Damage to plants, post-emergence” value (Oat; 1 kg/hectare) was 1, the “Damage to plants, pre-emergence” value (Oat; 1 kg/hectare) was 3 and the “Damage to plants, post-emergence” value (Oat; 5 kg/hectare) was 0. The “Damage to plants, pre-emergence” value (Oat; 5 kg/hectare) was 4, the “Mortality grading (kill)” value [1] was 2 (2 represents 60 - 90% kill) and the “Mortality grading (kill)” value [2, 12] was 2 (2 represents 60 - 90% kill). The “Damage to plants, post-emergence” value (Kale; 1 kg/hectare) was 5, the “Damage to plants, pre-emergence” value (Kale; 1 kg/hectare) was 4 and the “Damage to plants, post-emergence” value (Kale; 5 kg/hectare) was 4. The “Damage to plants, pre-emergence” value (Kale; 5 kg/hectare) was 5, the “Mortality grading (kill)” value [3] was 3 (3 represents over 90% kill) and the “Mortality grading (kill)” value [4] was 3 (3 represents over 90% kill). The “Mortality grading (kill)” value (Aphis fabae) was 3 (3 represents over 90% kill), the “Damage to plants, post-emergence” value (Lettuce) was 3 and the “Damage to plants, pre-emergence” value (Lettuce) was 3. The “Mortality grading (kill)” value [5, 12] was 0 (O represents less than 30% kill), the “Damage to plants, post-emergence” value (Tomato) was 3 and the “Damage to plants, pre-emergence” value (Tomato) was 3. The “Mortality grading (kill)” value [6] was 3 (3 represents over 90% kill), the “Damage to plants, post-emergence” value (Wheat) was 0 and the “Damage to plants, pre-emergence” value (Wheat) was 3. For the same compound, the “Damage to plants, post-emergence” value (Maize) was 0, the “Damage to plants, pre-emergence” value (Maize) was 1 and the “Damage to plants, post-emergence” value (Barley; 1 kg/hectare) was 1. For the same compound, the “Damage to plants, pre-emergence” value (Barley; 1 kg/hectare) was 4, the “Damage to plants, post-emergence” value (Barley; 5 kg/hectare) was 1 and the “Damage to plants, pre-emergence” value (Barley; 5 kg/hectare) was 4. The “Amount of disease grading, disease C (Table 4)” value [7] was 3 (0 to 5), the “Damage to plants, post-emergence” value (Onion; 1 kg/hectare) was 1 and the “Damage to plants, post-emergence” value (Onion; 5 kg/hectare) was 0. The “Damage to plants, pre-emergence” value (Onion; 5 kg/hectare) was 5, the “Damage to plants, post-emergence” value (Carrot; 1 kg/hectare) was 2 and the “Damage to plants, pre-emergence” value (Carrot; 1 kg/hectare) was 3. The “Damage to plants, post-emergence” value (Carrot; 5 kg/hectare) was 4, the “Damage to plants, pre-emergence” value (Carrot; 5 kg/hectare) was 5 and the “Amount of disease grading, disease D (Table 4)” value (Uncinula necator (vine)) was 3 (0 to 5). For the same compound, the “Damage to plants, post-emergence” value (Rice; 1 kg/hectare) was 0, the “Damage to plants, pre-emergence” value (Rice; 1 kg/hectare) was 4 and the “Damage to plants, post-emergence” value (Rice; 5 kg/hectare) was 0. For the same compound, the “Damage to plants, pre-emergence” value (Rice; 5 kg/hectare) was 5, the “Damage to plants, post-emergence” value (Pea; 1 kg/hectare) was 3 and the “Damage to plants, pre-emergence” value (Pea; 1 kg/hectare) was 3. The “Damage to plants, post-emergence” value (Pea; 5 kg/hectare) was 2, the “Damage to plants, pre-emergence” value (Pea; 5 kg/hectare) was 5 and the “Amount of disease grading, disease A (Table 4)” value [8] was 3 (0 to 5). For the same compound, the “Mortality grading (kill)” value (Megoura viceae) was 0 (O represents less than 30% kill), the “Mortality grading (kill)” value [9] was 3 (3 represents over 90% kill) and the “Damage to plants, post-emergence” value (Sugar beet; 1 kg/hectare) was 5. The “Damage to plants, pre-emergence” value (Sugar beet; 1 kg/hectare) was 4, the “Damage to plants, post-emergence” value (Sugar beet; 5 kg/hectare) was 5 and the “Damage to plants, pre-emergence” value (Sugar beet; 5 kg/hectare) was 5. The “% Kill of slugs” value [10] was 100%.
Fc1nc(F)c(Cl)c(Nc2c(Cl)c(F)c(Cl)c(F)c2Cl)c1Cl [Compound 43, 3,5-Dichloro-2,6-difluoro-4(3,5-difluoro-2,4,6-trichloroanilino) pyridine] was tested, and the “Damage to plants, post-emergence” value (Oat; 5 kg/hectare) was 4, the “Damage to plants, pre-emergence” value (Oat; 5 kg/hectare) was 0 and the “Mortality grading (kill), contact test” value [11] was 3 (3 represents over 90% kill). For the same compound, the “Mortality grading (kill)” value [1] was 0 (O represents less than 30% kill), the “Mortality grading (kill)” value ([2]; in vivo) was 2 (key: O represents less than 30% kill; 1 represents 30 - 49% kill; 2 represents 60 - 90% kill; 3 represents over 90% kill; C indicates a chemosterilant effect.; A indicates an antifeeding effect.) and the “Damage to plants, post-emergence” value (Kale; 5 kg/hectare) was 5. The “Damage to plants, pre-emergence” value (Kale; 5 kg/hectare) was 1, the “Mortality grading (kill)” value [3] was 3 (3 represents over 90% kill) and the “Mortality grading (kill)” value [4] was 3 (3 represents over 90% kill). For the same compound, the “Mortality grading (kill)” value (Aphis fabae) was 3 (3 represents over 90% kill), the “Damage to plants, post-emergence” value (Lettuce) was 3 and the “Damage to plants, pre-emergence” value (Lettuce) was 3. For the same compound, the “Mortality grading (kill)” value ([5]; in vivo) was 0 (key: O represents less than 30% kill; 1 represents 30 - 49% kill; 2 represents 60 - 90% kill; 3 represents over 90% kill; C indicates a chemosterilant effect.; A indicates an antifeeding effect.), the “Damage to plants, post-emergence” value (Tomato) was 3 and the “Damage to plants, pre-emergence” value (Tomato) was 1. For the same compound, the “Mortality grading (kill)” value [6] was 3 (3 represents over 90% kill), the “Damage to plants, post-emergence” value (Wheat) was 0 and the “Damage to plants, pre-emergence” value (Wheat) was 1. The “Damage to plants, post-emergence” value (Maize) was 2, the “Damage to plants, pre-emergence” value (Maize) was 0 and the “Damage to plants, post-emergence” value (Barley; 5 kg/hectare) was 3. For the same compound, the “Damage to plants, pre-emergence” value (Barley; 5 kg/hectare) was 1, the “Damage to plants, pre-emergence” value (Onion; 5 kg/hectare) was 0 and the “Damage to plants, post-emergence” value (Carrot; 5 kg/hectare) was 5. For the same compound, the “Damage to plants, pre-emergence” value (Carrot; 5 kg/hectare) was 0, the “Amount of disease grading, disease D (Table 4)” value (Uncinula necator (vine)) was 3 (0 to 5) and the “Damage to plants, post-emergence” value (Rice; 5 kg/hectare) was 1. The “Damage to plants, pre-emergence” value (Rice; 5 kg/hectare) was 0, the “Damage to plants, post-emergence” value (Pea; 5 kg/hectare) was 5 and the “Damage to plants, pre-emergence” value (Pea; 5 kg/hectare) was 0. For the same compound, the “Mortality grading (kill)” value (Megoura viceae) was 3 (3 represents over 90% kill), the “Mortality grading (kill)” value [9] was 3 (3 represents over 90% kill) and the “Damage to plants, post-emergence” value (Sugar beet; 5 kg/hectare) was 5. The “Damage to plants, pre-emergence” value (Sugar beet; 5 kg/hectare) was 0 and the “% Kill of slugs” value [10] was 100%.
